Legend:
[1] = Weight gain, food intake and body composition of normal lean mice dosed for 28 days; type: in vivo, female C57Bl/6 normal lean mice
Experimental: (§1) Remale C57Bl/6 genetically obese (ob/ob) or normal lean mice were fed on a powdered breeders diet and given the compounds either once daily by oral gavage, or by admixture with the diet for 28 days. Fifty parts per million (ppm) in the diet is equivalent to a dose level of about eight to ten )obese mie) or twelve to thirteen (normal mice) milligrams per kilogram body weight per dya. Body lipid content and lean body mass were determined gravimetrically. There were seven or eight mice in each treatment group and results are expressed as a percentage of values for an untreated group of similar size.

[2] = Weight gain, food intake and body composition of genetically obese (ob/ob) mice dosed for 28 days; type: in vivo, female C57Bl/6 genetically obese (ob/ob) mice
Experimental: as §1

[3] = Weight gain and food conversion efficiency of broiler chicken, 30-56 days; type: in vivo, Marshall sexed broiler chicken; settings: 3 ppm in feed
Source text: Marshall sexed broiler chicken, 30 days old, were fed on a basal feed, which was designed as a practical broiler and finisher feed. Additive (see below) was substituted for maize in tis diet. The supplemented diets were fed until the birds were 56 days old.

[4] = Pup weight and rectal temperature after administration to pregnant rats; type: in vivo, Sprague-Dawley rats; settings: days 2-20 of gestation, mean ± S.E.M.
Experimental: Female Sprague-Dawley rates were mated, fed on powdered rodent diet and given compound P1 as a dietary admixture (150 ppm) from days 2-20 of gestation. Thereafter no further compound was given. Parturition occurred on day 22. The pups were weight 24 hours after birth. 48 hours after birth 7 pups were removed at random from 3 control and 3 treated litters, placed 29° C. and rectal temperature was monitored. Results are expressed as means of the number of values shown in parentheses±S.E.M.

COC(=O)COc1ccc(CC(C)NCC(O)c2cc(Cl)c(N)c(Cl)c2)cc1 (centres unmarked) [Preparation P5, N-[2-(4-carbomethoxymethoxyphenyl)-1-methylethyl]-2-hydroxy-2-(4-amino-3,5-dichlorophenyl)ethanamine]
Food Intake ([1]; 50 ppm in diet): 108 % of control values
Gain/Intake ([1]; 50 ppm in diet): 116 % of control values
Lean Body mass ([1]; 50 ppm in diet): 108 % of control values
Weight Gain ([1]; 50 ppm in diet): 125 % of control values

COC(=O)c1ccc(CC(C)NCC(O)c2ccc(O)c(CO)c2)cc1 [Preparation P2, N-[2-(4-carbomethoxyphenyl)-L-methylethyl]-2-hydroxy-2-(4-hydroxy-3-hydroxymethylphenyl) ethanamine]
Amt. of Lipid ([1]; 75 ppm in diet): 78 % of control values
Food Intake ([1]; 75 ppm in diet): 107 % of control values
Gain/Intake ([1]; 75 ppm in diet): 120 % of control values
Lean Body mass ([1]; 75 ppm in diet): 107 % of control values
Weight Gain ([1]; 75 ppm in diet): 128 % of control values
Amt. of Lipid ([2]; 10 mg/kg po once daily): 77 % of control values
Food Intake ([2]; 10 mg/kg po once daily): 111 % of control values
Gain/Intake ([2]; 10 mg/kg po once daily): 70 % of control values
Lean Body mass ([2]; 10 mg/kg po once daily): 113 % of control values
Weight Gain ([2]; 10 mg/kg po once daily): 78 % of control values
Amt. of Lipid ([2]; 36 ppm in diet): 101 % of control values
Food Intake ([2]; 36 ppm in diet): 112 % of control values
Gain/Intake ([2]; 36 ppm in diet): 99 % of control values
Lean Body mass ([2]; 36 ppm in diet): 112 % of control values
Weight Gain ([2]; 36 ppm in diet): 111 % of control values

COC(=O)c1ccc(CC(C)NCC(O)c2ccccc2)cc1 (centres unmarked) [Preparation P1, N-[2-(4-carbomethoxyphenyl)-1-methylethyl]-2-hydroxy-2-phenylethanamine]
Weight gain 30-56 days ([3]; female, control 1309): 1326 g
Food conversion efficiency 30-56 days ([3]; female, control .329): .333
Weight gain 30-56 days ([3]; male, control 1644): 1784 g
Food conversion efficiency 30-56 days ([3]; male, control .367): .385
Weight, All pups ([4]; 150 ppm in diet of dams, 24 hours after birth, n=52, control 5.3 ± 0.1): 5.9 ± 0.1 g
Weight, Pups monitored for body temperature ([4]; 150 ppm in diet of dams, n=7, control 5.0 ± 0.1): 6.6 ± 0.4 g
Drop in rectal temperature after 10 mins @ 29° C. ([4]; pups 48 hours after birth, dams 150 ppm in diet, n=7, control 2.76 ± 0.16): 1.98 ± 0.06
Rectal temperature after 10 mins @ 29° C. ([4]; pups 48 hours after birth, dams 150 ppm in diet, n=7, control 29.4 ± 0.4): 31.2 ± 0.5
Amt. of Lipid ([2]; 50 ppm in diet): 103 % of control values
Food Intake ([2]; 50 ppm in diet): 119 % of control values
Gain/Intake ([2]; 50 ppm in diet): 168 % of control values
Lean Body mass ([2]; 50 ppm in diet): 111 % of control values
Weight Gain ([2]; 50 ppm in diet): 200 % of control values

COC(=O)c1ccc(CC(C)NCC(O)c2ccc(O)c(CO)c2)cc1 (centres unmarked) [Preparation P3]
Amt. of Lipid ([1]; 20 mg/kg po once daily): 69 % of control values
Gain/Intake ([1]; 20 mg/kg po once daily): 90 % of control values
Lean Body mass ([1]; 20 mg/kg po once daily): 113 % of control values
Weight Gain ([1]; 20 mg/kg po once daily): 171 % of control values

COC(=O)COc1ccc(CC(C)NCC(O)c2cccc(Cl)c2)cc1 (centres unmarked) [Preparation P4, N-[2-(4-carbomethoxymethoxyphenyl)-1-methylethl]-2-hydroxy-2-(3-chlorophenyl)ethanamine]
Amt. of Lipid ([2]; 0.46 ppm in diet): 105 % of control values
Food Intake ([2]; 0.46 ppm in diet): 116 % of control values
Gain/Intake ([2]; 0.46 ppm in diet): 124 % of control values
Lean Body mass ([2]; 0.46 ppm in diet): 107 % of control values
Weight Gain ([2]; 0.46 ppm in diet): 143 % of control values
